According to patent US20120004228A1, “Bis Aromatic Compounds for Use as LTC4 Synthase Inhibitors” (BIOLIPOX AB, priority 2009, published 2012):

Each compound was assayed against T1, Recombinant human LTC4 synthase (Homo sapiens, UniProt Q16873) (assay: In vitro LTC4 synthase assay (LTA4 to LTC4, HTRF detection)).
T1 construct: made in house; host or cells: Pichia pastoris ('Piccia pastoralis' [sic])
T1 sequence (Q16873 1-150): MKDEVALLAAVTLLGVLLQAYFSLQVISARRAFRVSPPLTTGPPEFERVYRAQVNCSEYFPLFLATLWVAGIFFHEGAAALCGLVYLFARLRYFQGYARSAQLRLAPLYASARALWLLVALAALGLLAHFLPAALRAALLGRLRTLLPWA
Type: biochemical
Experimental: In the assay, LTC4 synthase catalyses the reaction where the substrate LTA4 is converted to LTC4. Recombinant human LTC4 synthase is expressed in Piccia pastoralis and the purified enzyme is dissolved in 25 mM tris-buffer pH 7.8 supplemented with 0.1 mM glutathione (GSH) and stored at −80° C. The assay is performed in phosphate buffered saline (PBS) pH 7.4 and 5 mM GSH in 384-well plates.
The following is added chronologically to each well:
1. 48 μL LTC4 synthase in PBS with 5 mM GSH. The total protein concentration in this solution is 0.5 μg/mL. 2. 1 μL inhibitor in DMSO (final concentration 10 μM). 3. Incubation of the plate at room temperature for 10 min. 4. 1 μL LTA4 (final concentration 2.5 μM). 5. Incubation of the plate at room temperature for 5 min. 6. 10 μL of the incubation mixture is analysed using homogenous time resolved fluorescent (HTRF) detection.

| IC50 [nM] | Compound |
| --- | --- |
| 70 | CN(c1ccc(Cl)cc1)c1ccc(C(=O)c2cc(Nc3ccc(Cl)cc3)cc(C(=O)O)c2)nc1 [9:4, 3-{5-[(4-Chlorophenyl)(methyl)amino]picolinoyl}-5-(4-chlorophenylamino)-benzoic acid] |
| 160 | CN(c1ccc(Cl)cc1)c1ccc(C(=O)c2cc(Nc3ccccc3Cl)cc(C(=O)O)c2)nc1 [9:5, 3-{5-[(4-Chlorophenyl)(methyl)amino]picolinoyl}-5-(2-chlorophenylamino)-benzoic acid] |
| 33 | CN(c1ccc(Cl)cc1)c1ccc(C(=O)c2cc(C(=O)O)cc(N(C)c3ccccc3)c2)nc1 [9:6, 3-{5-[(4-Chlorophenyl)(methyl)amino]picolinoyl}-5-[methyl(phenyl)amino]-benzoic acid] |
| 43 | C#CCN(c1ccccc1)c1cc(C(=O)O)cc(C(=O)c2ccc(N(C)c3ccc(Cl)cc3)cn2)c1 [9:8, 3-{5-[(4-Chlorophenyl)(methyl)amino]picolinoyl}-5-[phenyl(prop-2-ynyl)amino]-benzoic acid] |
| 123 | COc1ccc(CN(C)c2cc(C(=O)O)cc(C(=O)c3ccc(N(C)c4ccc(Cl)cc4)cn3)c2)cc1 [9:9, 3-{5-[(4-Chlorophenyl)(methyl)amino]picolinoyl}-5-[(4-methoxybenzyl)(methyl)-amino]benzoic acid] |
| 75 | CN(Cc1cccc(Cl)c1)c1cc(C(=O)O)cc(C(=O)c2ccc(N(C)c3ccc(Cl)cc3)cn2)c1 [9:10, 3-[(3-Chlorobenzyl)(methyl)amino]-5-{5-[(4-chlorophenyl)(methyl)amino]-picolinoyl}benzoic acid] |
| 61 | CN(c1ccc(Cl)cc1)c1ccc(C(=O)c2cc(Nc3ccccc3)cc(C(=O)O)c2)nc1 [9:11, 3-{5-[(4-Chlorophenyl)(methyl)amino]picolinoyl}-5-(phenylamino)benzoic acid] |
| 170 | CN(Cc1ccc(Cl)cc1)c1cc(C(=O)O)cc(C(=O)c2ccc(N(C)c3ccc(Cl)cc3)cn2)c1 [9:12, 3-((4-Chlorobenzyl)(methyl)amino)-5-{5-[(4-chlorophenyl)(methyl)amino]-picolinoyl}benzoic acid] |
| 531 | CN(c1ccc(Cl)cc1)c1ccc(C(=O)c2cc(C(=O)O)cc(N3CCc4ccccc4C3)c2)nc1 [9:13, 3-{5-[(4-Chlorophenyl)(methyl)amino]picolinoyl}-5-(1,2,3,4-tetrahydroiso-quinolin-2-yl)benzoic acid] |
| 103 | CN(Cc1ccc2c(c1)OCO2)c1cc(C(=O)O)cc(C(=O)c2ccc(N(C)c3ccc(Cl)cc3)cn2)c1 [9:14, 3-{5-[(4-Chlorophenyl)(methyl)amino]picolinoyl}-5-[(3,4-methylenedioxy-benzyl)(methyl)amino]benzoic acid] |
| 50 | CN(c1ccc(Cl)cc1)c1ccc(C(=O)c2cc(C(=O)O)cc(N(CC3(C)COC3)c3ccccc3)c2)nc1 [9:15, 3-{5-[(4-Chlorophenyl)(methyl)amino]picolinoyl}-5-{[(3-methyloxetan-3-yl)-methyl](phenyl)amino}benzoic acid] |
| 160 | CN(c1ccc(Cl)cc1)c1ccc(C(=O)c2cc(C(=O)O)cc(N(C(=O)CC(C)(C)C)c3ccccc3)c2)nc1 [9:18, 3-{5-[(4-Chlorophenyl)(methyl)amino]picolinoyl}-5-(3,3-dimethyl-N-phenyl-butylamido)benzoic acid] |
| 40 | CC(=O)N(c1ccccc1)c1cc(C(=O)O)cc(C(=O)c2ccc(N(CC3CC3)c3ccc(Cl)cc3)cn2)c1 [9:19, 3-{5-[(4-Chlorophenyl)(cyclopropylmethyl)amino]picolinoyl}-5-(N-phenylacet-amido)benzoic acid] |
| 30 | O=C(O)c1cc(Nc2ccccc2)cc(C(=O)c2ccc(N(CC3CC3)c3ccc(Cl)cc3)cn2)c1 [9:20, 3-{5-[(4-Chlorophenyl)(cyclopropylmethyl)amino]picolinoyl}-5-(phenylamino)-benzoic acid] |
| 274 | COc1cccc(N(C)c2cc(C(=O)O)cc(C(=O)c3ccc(N(C)c4ccc(Cl)cc4)cn3)c2)c1 [9:21, 3-{5-[(4-Chlorophenyl)(methyl)amino]picolinoyl}-5-[(3-methoxyphenyl)(methyl)-amino]benzoic acid] |
